Article PMC5286460 (ACS Omega, 2017)
Entries after “also recorded” stand apart in the source; their conditions may differ.

Experiments:
[1] = UV–vis absorption and fluorescence spectroscopy; type: physicochemical; settings: 10% DMSO; for λmax abs: 10-15 μM
[2] = Cell viability by Cell Titer-Blue assay; type: cell-based; settings: human, Capan-1 cells
healthy CD-1 mice = experiment: In vivo biodistribution imaging in healthy mice; parameters: species or system mouse; settings: for pancreas specificity / accumulation: systemic administration
Capan-1 cells [3] = experiment: Subcellular colocalization, live cell imaging; type: cell-based, human; settings: 0.5 μM, 1 h incubation
Capan-1 cells [4] = experiment: Cellular uptake in Capan-1 cells; type: cell-based, human; settings: within 30 min of application
[5] = tested on: pancreas tissue derived from healthy and PDAC mice; experiment: Ex vivo staining of pancreas tissue from healthy and PDAC mice; settings: PDAC mouse pancreas tissue slides
[6] = tested on: genetically modified PDAC mice; experiment: In vivo biodistribution and ex vivo pathology in PDAC tumor-bearing mice; parameters: species or system mouse; settings: 100 nmol systemic, 1.5 h
[7] = acidic solution pH 1.9, 12.5 mM HCl

| Structure (SMILES) | Stokes shift ([1]; pH 7.4 phosphate buffer) | brightness ([1]; pH 7.4 phosphate buffer) | λmax em ([1]; pH 7.4 phosphate buffer) | φ (quantum yield) ([1]; pH 7.4 phosphate buffer) | λmax abs ([1]; pH 7.4 phosphate buffer) | pancreas specificity / accumulation (healthy CD-1 mice) | other results |
| --- | --- | --- | --- | --- | --- | --- | --- |
| COC(=O)c1ccccc1-c1c2ccc(=O)cc-2oc2c1ccc1cccc(N(C)C)c12 [Compound 8] | – | – | – | – | – | – | λmax em ([1]; basic solution pH 12.1, 12.5 mM NaOH): 530 nm |
| COC(=O)c1ccccc1-c1c2ccc(=N)cc-2oc2c1ccc1cccc(O)c12.Cl [Compound 3] | – | – | – | – | – | – | Stokes shift [1, 7]: 62 nm; brightness [1, 7]: 226; λmax em [1, 7]: 604 nm; φ (quantum yield) [1, 7]: 1.14%; λmax abs [1, 7]: 542 nm |
| COC(=O)c1ccccc1C1=c2cc3c4c(c2Oc2c1ccc1cccc(O)c21)CCC[N+]=4CCC3.[Cl-] [Compound 11] | – | – | – | – | – | – | Stokes shift [1, 7]: 39 nm; brightness [1, 7]: 2314; λmax em [1, 7]: 624 nm; φ (quantum yield) [1, 7]: 15.3%; λmax abs [1, 7]: 585 nm |
| COC(=O)c1ccccc1-c1c2ccc(=[N+](C)C)cc-2oc2c1ccc1cccc(OC)c12.[Cl-] [Compound 6] | 38 nm | 2094 | 606 nm | 9.32% | 568 nm | – | – |
| CN(C)c1ccc2nc3ccc(=[N+](C)C)cc-3sc2c1 [MB, methylene blue, reference compound] | – | – | – | – | – | poor penetration into normal pancreas tissue; also recorded: diminished pancreas accumulation | – |
| COC(=O)c1ccccc1-c1c2ccc(=N)cc-2oc2c1ccc1cccc(N)c12.Cl [Compound 9] | 184 nm | 25 | 760 nm | 0.18% | 576 nm | – | – |

Continued, in another order:

| Stokes shift ([1]; pH 7.4 phosphate buffer) | brightness ([1]; pH 7.4 phosphate buffer) | λmax em ([1]; pH 7.4 phosphate buffer) | φ (quantum yield) ([1]; pH 7.4 phosphate buffer) | λmax abs ([1]; pH 7.4 phosphate buffer) | Structure (SMILES) | pancreas specificity / accumulation (healthy CD-1 mice) | other results |
| --- | --- | --- | --- | --- | --- | --- | --- |
| 139 nm | 85 | 740 nm | 0.66% | 601 nm | COC(=O)c1ccccc1C1=c2cc3c4c(c2Oc2c1ccc1cccc(N)c21)CCC[N+]=4CCC3.[Cl-] [Compound 13] | diminished pancreas accumulation | IC50 at 24 h [2]: 26.1 µM; subcellular localization (Capan-1 cells [3]): extensive accumulation in the mitochondria; relative cellular uptake (Capan-1 cells [4]): greatest uptake |
| 40 nm | 2022 | 622 nm | 11.38% | 582 nm | COC(=O)c1ccccc1C1=c2cc3c4c(c2Oc2c1ccc1cccc(OC)c21)CCC[N+]=4CCC3.[Cl-] [Compound 12] | improved pancreas specificity | IC50 at 24 h [2]: 17.8 µM; uptake in normal pancreas tissue as compared to MB (healthy CD-1 mice; 100 nmol systemic (MB 120 nmol)): 4 fold; fluorescence SBR in the pancreas vs surrounding organs (healthy CD-1 mice; 4 h time point): highest and most persistent fluorescence SBR in the pancreas; ex vivo staining pattern in cancerous tissue [5]: localized in the PDAC-associated ductal epithelial cells; subcellular localization (Capan-1 cells [3]): extensive accumulation in the mitochondria; PDAC-specific fluorescence / accumulation [6]: Significantly more fluorescence; also recorded: significantly higher than that in the surrounding tissues |
